Test results taken from patent publication US20210369720A1, “SYNERGISTIC COMPOSITION HAVING NEUROPROTECTIVE PROPERTIES AND METHODS OF USE THEREOF” (Rutgers, The State University of New Jersey, priority 2018, published 2021).

How the values were obtained:
Syn^Tg mice [1] = assay: Wire Hang test, Syn^Tg mice; type: in vivo; settings: EHT 12 mg/kg/day in chow and/or caffeine 50 mg/kg/day in drinking water from weaning until six months of age, vs untreated Syn^Tg mice
Excerpt: (§1) Thy1-α-synuclein transgenic mice (Syn^Tg) on BDF1 background overexpressing human wild-type α-synuclein under the control of the Thy1 promoter were maintained by mating heterozygous transgenic females with WT BDF1 males (Rockenstein E, et al. (2002) Differential neuropathological alterations in transgenic mice expressing alpha-synuclein from the platelet-derived growth factor and Thy-1 promoters. J Neurosci Res 68(5):568-578). BDF1 mice (mixed C57BL/6-DBA/2) were generated every three months by mating female C57BL/6 (The Jackson Laboratory) and male DBA/2 mice (Charles River). Experiments were performed with male transgenic mice and their WT littermates. […] Wild-type littermates received regular water and control chow. […] At two months of age, mice were inoculated with α-Syn PFF unilaterally in the striatum. These treatments continued throughout the experiment until animals were sacrificed. Mice were weighed and their food and water intake was quantified weekly. Animals were housed 2-5/cage in an AAALAC approved facility in a temperature- and humidity-controlled environment under a 12-hour light/dark cycle and were maintained on a diet of lab chow and water ad libitum. […]

[2] = system: α-Syn PFF inoculated WT mice; assay: Morris Water Maze, α-Syn PFF inoculated WT mice; type: in vivo; settings: EHT 12 mg/kg/day and/or caffeine 50 mg/kg/day, 6 months post-inoculation, test also not affected by PFF inoculation
Excerpt: as §1

Syn^Tg mice [3] = settings: cited from earlier work
[4] = system: TH positive dopaminergic neurons of the substantia nigra; assay: Nigral TH positive neuron count, α-Syn PFF inoculated WT mice; type: in vivo; settings: each compound individually, PFF alone reduced neurons by 51% vs PBS
Excerpt: as §1

[5] = system: Tyrosine hydroxylase (TH); assay: Striatal TH staining, α-Syn PFF inoculated WT mice; type: in vivo; settings: EHT 12 mg/kg/day and/or caffeine 50 mg/kg/day, vs untreated α-Syn PFF inoculated mice
Excerpt: as §1

Syn^Tg mice [6] = assay: Morris Water Maze, Syn^Tg mice; type: in vivo; settings: EHT 12 mg/kg/day in chow and/or caffeine 50 mg/kg/day in drinking water from weaning until six months of age, vs untreated Syn^Tg mice
Excerpt: as §1

Syn^Tg mice [7] = assay: Rotarod, Syn^Tg mice; type: in vivo; settings: EHT 12 mg/kg/day in chow and/or caffeine 50 mg/kg/day in drinking water from weaning until six months of age, vs untreated Syn^Tg mice
Excerpt: as §1

GFAP = assay: Immunohistochemical staining of GFAP in the cortex, Syn^Tg mice; type: in vivo; settings: EHT 12 mg/kg/day and/or caffeine 50 mg/kg/day until six months of age
Excerpt: Neuroinflammation is one of the neuropathological features of PD and models of α-synucleinopathy including Syn^Tg mice (Lee K W, et al. (2011) Enhanced phosphatase activity attenuates alpha-synucleinopathy in a mouse model. J Neurosci 31(19):6963-6971).
Thy1-α-synuclein transgenic mice (Syn^Tg) on BDF1 background overexpressing human wild-type α-synuclein under the control of the Thy1 promoter were maintained by mating heterozygous transgenic females with WT BDF1 males (Rockenstein E, et al. (2002) Differential neuropathological alterations in transgenic mice expressing alpha-synuclein from the platelet-derived growth factor and Thy-1 promoters. J Neurosci Res 68(5):568-578). BDF1 mice (mixed C57BL/6-DBA/2) were generated every three months by mating female C57BL/6 (The Jackson Laboratory) and male DBA/2 mice (Charles River). Experiments were performed with male transgenic mice and their WT littermates. […] Wild-type littermates received regular water and control chow. […] Mice were weighed and their food and water intake was quantified weekly. […]
Vectastain elite ABC kit (Vector Laboratories, Burlingame, Calif.) and 3,3′-diaminobenzidine (Sigma-Aldrich) were used for amplifying and color development. […] For other stains, the whole microscopic field was analyzed. For p-α-Syn stains in the cortex, four matching regions in each of two sections per animal were counted.

[8] = system: α-Syn PFF inoculated WT mice; assay: Wire Hang test, α-Syn PFF inoculated WT mice; type: in vivo; settings: EHT 12 mg/kg/day in diet and/or caffeine 50 mg/kg/day in drinking water from weaning, 6 months post-inoculation
Excerpt: as §1

[9] = system: α-Syn PFF inoculated WT mice; assay: Rotarod, α-Syn PFF inoculated WT mice; type: in vivo; settings: EHT 12 mg/kg/day in diet and/or caffeine 50 mg/kg/day in drinking water from weaning, 6 months post-inoculation
Excerpt: as §1

Structure (SMILES): CCCCCCCCCCCCCCCCCCCC(=O)NCCc1c[nH]c2ccc(O)cc12 [EHT, eicosanoyl-5-hydroxytryptamide]
- performance on the wire hang test (Syn^Tg mice [1]): did so only on the Wire Hang test
- Learning and memory task on the Morris Water Maze [2]: not affected
- molecular, histochemical, and behavioral benefits (Syn^Tg mice [3]; EHT 12 mg/kg/day in chow, nine months of treatment): partial amelioration
- PP2A methylation in brain tissue lysates (Syn^Tg mice [3]; EHT alone for nine months, dose dependent, more evident at 120 mg/kg/day): modulated PP2A methylation
- accumulation of p-α-Syn (Syn^Tg mice [3]; EHT alone for nine months, more evident at 120 mg/kg/day): reduced the accumulation of p-α-Syn
- prevention of the reduction of TH positive dopaminergic neurons of the substantia nigra [4]: did not prevent this reduction
- TH staining of dopaminergic terminals in the striatum (ipsilateral and contralateral) [5]: non-significant increase
- performance on the Morris Water Maze (Syn^Tg mice [6]): did not improve performance
- performance on the rotarod (Syn^Tg mice [7]): did not improve performance
- astrocytic proliferation (GFAP) in the cortex (GFAP): partially but insignificantly attenuated
- performance on the wire hang test [8]: improved performance
- performance on the rotarod [9]: improved performance
